Source: US6863647B2, “2-Ureido-thiazole derivatives, process for their preparation, and their use as antitumor agents” (Pharmacia & Upjohn S.p.A., priority 1998, dated 2005)

Molecular target: cdk2/cyclin A complex (Homo sapiens, UniProt P24941)
Assay: inhibition assay of cdk2/Cyclin A activity (MultiScreen-PH phosphocellulose filter, 33P-labelled histone H1)
Format: biochemical
Details: histone H1 substrate, 25 μM ATP; inhibitor 0.0045 to 10 μM; read-out: inhibiting activity towards the cdk2/cyclin A complex (IC50)
Experimental: The inhibiting activity of putative cdk/cyclin inhibitors and the potency of selected compounds was determined through a method of assay based on the use of the MultiScreen-PH 96 well plate (Millipore), in which a phosphocellulose filter paper was placed at each well bottom allowing binding of positive charged substrate after a washing/filtration step.
When a radioactivity labelled phosphate moiety was transferred by the ser/threo kinase to the filter-bound histone, light emitted was measured in a scintillation counter.
The inhibition assay of cdk2/Cyclin A activity was performed according to the following protocol: • Kinase reaction: 1.5 μM histone H1 substrate, 25 μM ATP (0.5 μCi P^33γ-ATF), 30 ng Cyclin A/cdk2 complex, 10 μM inhibitor in a final volume of 100 μl buffer (TRIS HCl 10 mM pH 7.5, MgCl2 10 mM, 7.5 mM DTT) were added to each well of a 96 U bottom well plate. […] Plates were then washed 3 times with 150 μl/well PBS Ca^++/Mg^++ free and filtered by MultiScreen filtration system. • Detection: filters were allowed to dry at 37° C., then 100 μl/well scintillant were added and ^33P labelled histone H1 was detected by radioactivity counting in the Top-Count instrument. • Results: data were analysed and expressed as % inhibition referred to total activity of enzyme (=100%). […]

With `Cc1cc(C)cc(NC(=O)Nc2ncc(C(C)C)s2)c1` [N-(5-isopropyl-1,3-thiazol-2-yl)-N′-(3,5-dimethylphenyl)urea] the IC50 was 560 nM.
